How the values were obtained:
[1] = tested on: PC-3 cell lines wt, chd1 ko1, chd1 ko2; assay: Viability cell proliferation assay (PrestoBlue) in PC-3 wt versus chd1 ko isogenic cell lines; type: cell-based, human; conditions: CHD1 deficient (CRISPR-Cas9 knock out) PC-3 cells versus wild type, 24 hrs exposure, then 5 days drug-free
Description: PC-3 prostate cell line was purchased from ATCC® and grown in RPMI 1640 (Gibco) supplemented with 10% FBS (Gibco). RPE1-CHD1 knock out cells were provided by Alan D. D'Andrea's laboratory. Cells were incubated at 37° C. in 5% CO2, and regularly tested for Mycoplasma spp. contamination.
Full length SpCas9 ORF was introduced in PC-3 cell population by Lentiviral transduction using lentiCas9-Blast (Addgene #52962) construction. After antibiotics (blasticidin) selection, survival populations were single cell cloned, isogenic cell lines were generated and tested for Cas9 activity by cleavage assay.
CHD1 was targeted in stable CRISPR-Cas9 expressor isogenic PC-3 cell line using guide RNA CHD1_ex2_g1 (caccg[…]), resulting in PC-3 chd1 ko 1, and chd1 ko 2 homozygous loss cell lines.
Exponentially growing PC-3 cell lines wt, chd1 ko1, chd1 ko2 were seeded in 96-well plates (1000 cells/well) and incubated for 36 hrs to facilitate cell attachment. Identical cell numbers of seeded parallel isogenic lines were verified by the Celigo Imaging Cytometer after attachment.
Cells were exposed to Talazoparib (Selleckchem), Olaparib (MedChemExpress) and Bleomycin sulfate (Fisher Scientific) for 24 hrs, then kept in drug-free fresh media for 5 days until cell growth was determined by the addition of PrestoBlue (Invitrogen) and incubated for 2.5 hrs. Cell viability was determined by using the BioTek plate reader system. Fluorescence was recorded at 560 nm/590 nm, and values were calculated based on the fluorescence intensity. IC50 values were determined by using the AAT Bioquest IC50 calculator tool. P-values were calculated using student's t-test. P-values <0.05 were considered statistically significant.

CHD1 null cells = conditions: cited from earlier work

In the case of Bleomycin sulfate, the “increase in sensitivity upon CHD1 deletion” value (shortened to “increase”) [1] is reported as 5 fold.

In the case of `Cn1ncnc1[C@H]1c2n[nH]c(=O)c3cc(F)cc(c23)N[C@@H]1c1ccc(F)cc1` [talazoparib, Talazoparib], the “increase” value [1] is reported as 15-20 fold.

In the case of `O=C(c1cc(Cc2n[nH]c(=O)c3ccccc23)ccc1F)N1CCN(C(=O)C2CC2)CC1` [olaparib, Olaparib], the “increase” value [1] is given as “approximately 5 fold” and the “olaparib sensitivity of CHD1-deficient cancer cells” value (CHD1 null cells) is given as “relatively mild”.

Reference: US20220177954A1, “NUCLEIC ACID PROBES” (CYTOTEST INC., priority 2020, published 2022)
